Assay results taken from US11512353B2, “Method to predict response to neuropsychiatric drugs using variation in the serotonin 7 receptor (HTR7) gene” (The Regents of the University of California, priority 2018, dated 2022).

How the values were obtained:
[1] = target: HTR7 (Homo sapiens, UniProt P34969); conditions: cited from earlier work
[2] = target: norepinephrine transporter (Homo sapiens, UniProt P23975); conditions: cited from earlier work
[3] = system: outpatients with moderate to severe unipolar depression; test: Prospective GENDEP cohort: association of rs7905446 genotype with antidepressant remission; assay type: in vivo, human; conditions: TT vs TG/GG, logistic regression adjusted for sex, age and center ID, week 12, remission MADRS≤10
Experimental: Statistical analysis. The association between drug response and allelic SNPs identified from pooled-sequencing were performed using logistic regression (PLINK version 1.9).. The association between drug response and […] genotype was performed using logistic regression within Caucasian population. χ^2 tests were used to compare the sex distribution between responder and non-responder. Group differences were analyzed using Student's T-test. […] Replication study II in the Genome-based Therapeutic Drugs for Depression ([…]) study. […] is a multicenter part-randomized open-label pharmacogenetic study of 811 outpatients with moderate to severe unipolar depression diagnosed according to DSM-IV and established in the semi-structured SCAN interview. Patients were aged 19 to 72 years with European ancestry for at least two generations. Patients with personal and family history of schizophrenia or bipolar affective disorder and current dependence on alcohol or drugs were excluded from the study. […] Patients with contraindications for one of the drugs were allocated nonrandomly to the other antidepressant. […] The study was approved by ethics boards of all the participating centers. All participants provided written informed consent.

[4] = system: subjects with BD, MDD or SABP diagnosis; test: Retrospective cohort: association of rs7905446 genotype with self-reported SSRI response (logistic regression); assay type: in vivo, human; conditions: TT vs TG/GG, TT associated with poor response, logistic regression adjusted for sex and age, Caucasian subjects
Experimental: SNP genotyping. Genotyping of rs7905446 (T/G) was performed using TaqMan SNP genotyping assay on 7900HT Fast Real-Time PCR System (Thermo Fisher Scientific, Waltham, Mass., USA) as previously described. The assay included negative controls and was run with the following condition: 95° C. for 10 min followed by 40 cycles of 92° C. for 15 s and 60° C. for 1 min. The genotyping success rate was >95%. Twenty percent of the samples were genotyped in duplicate, with 100% reproducibility.
Statistical analysis. The association between drug response and allelic SNPs identified from pooled-sequencing were performed using logistic regression (PLINK version 1.9).. The association between drug response and rs7905446 genotype was performed using logistic regression within Caucasian population. χ^2 tests were used to compare the sex distribution between responder and non-responder. Group differences were analyzed using Student's T-test. P value<0.05 were considered statistically significant.
Subjects. All subjects (n=497) were ascertained as part of several cohorts collected for genetic studies of BD. Subjects were identified through VA and UCSD clinics, as well as, advertisement and patient support groups. […]
Assessment of SSRI response. […] Subject's response to SSRI's over their lifetime was assessed based on self-reporting. […]

[5] = system: HTR7; conditions: chronic treatment; cited from earlier work
[6] = target: HTR7 (Mus musculus, UniProt P32304); conditions: in vivo; cited from earlier work
Chain of HTR7 (Mus musculus, UniProt P32304) (P32304 whole entry): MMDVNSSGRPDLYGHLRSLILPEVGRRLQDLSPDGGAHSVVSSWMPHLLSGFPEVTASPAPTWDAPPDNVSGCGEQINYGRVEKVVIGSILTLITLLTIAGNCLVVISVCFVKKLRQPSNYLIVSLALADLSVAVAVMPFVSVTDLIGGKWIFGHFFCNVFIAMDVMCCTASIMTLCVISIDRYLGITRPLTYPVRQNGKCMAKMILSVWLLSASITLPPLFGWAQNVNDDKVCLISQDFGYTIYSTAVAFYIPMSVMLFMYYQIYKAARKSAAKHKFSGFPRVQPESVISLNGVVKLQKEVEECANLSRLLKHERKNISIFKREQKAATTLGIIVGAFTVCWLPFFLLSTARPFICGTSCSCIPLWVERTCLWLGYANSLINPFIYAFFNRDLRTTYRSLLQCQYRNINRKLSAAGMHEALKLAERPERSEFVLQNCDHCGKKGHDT

Chain of HTR7 (Homo sapiens, UniProt P34969) (P34969 whole entry): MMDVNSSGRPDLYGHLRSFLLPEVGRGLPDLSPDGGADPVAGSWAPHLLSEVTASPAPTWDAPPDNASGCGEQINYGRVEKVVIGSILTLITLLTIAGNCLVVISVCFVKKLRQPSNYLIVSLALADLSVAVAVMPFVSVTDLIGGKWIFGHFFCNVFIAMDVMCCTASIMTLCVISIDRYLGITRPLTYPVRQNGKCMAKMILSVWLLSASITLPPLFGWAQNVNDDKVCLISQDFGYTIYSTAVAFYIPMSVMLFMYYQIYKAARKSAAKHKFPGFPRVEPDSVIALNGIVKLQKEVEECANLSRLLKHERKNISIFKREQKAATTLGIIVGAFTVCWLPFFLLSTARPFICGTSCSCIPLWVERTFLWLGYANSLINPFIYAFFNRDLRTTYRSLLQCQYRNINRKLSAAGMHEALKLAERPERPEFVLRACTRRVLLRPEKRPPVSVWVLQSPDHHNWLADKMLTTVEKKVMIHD
Chain of norepinephrine transporter (P23975 whole entry, species assumed): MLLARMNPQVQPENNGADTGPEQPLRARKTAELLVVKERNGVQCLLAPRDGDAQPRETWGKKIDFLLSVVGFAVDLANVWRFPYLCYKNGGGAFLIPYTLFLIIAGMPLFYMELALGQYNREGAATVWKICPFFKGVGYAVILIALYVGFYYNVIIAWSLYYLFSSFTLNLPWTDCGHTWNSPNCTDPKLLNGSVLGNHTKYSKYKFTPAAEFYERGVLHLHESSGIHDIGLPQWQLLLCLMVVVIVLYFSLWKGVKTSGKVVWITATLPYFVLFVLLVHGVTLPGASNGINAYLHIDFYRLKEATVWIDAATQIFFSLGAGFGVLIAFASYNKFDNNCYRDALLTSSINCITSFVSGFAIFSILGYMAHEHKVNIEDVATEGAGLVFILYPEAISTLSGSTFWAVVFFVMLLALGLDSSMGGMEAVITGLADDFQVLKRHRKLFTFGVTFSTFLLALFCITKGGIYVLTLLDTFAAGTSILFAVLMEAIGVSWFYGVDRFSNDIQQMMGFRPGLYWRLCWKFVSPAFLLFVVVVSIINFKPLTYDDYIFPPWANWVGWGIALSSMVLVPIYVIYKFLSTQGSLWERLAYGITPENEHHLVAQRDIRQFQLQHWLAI

SMILES: Cc1nc2n(c(=O)c1CCN1CCC(c3noc4cc(F)ccc34)CC1)CCCC2 [risperidone, Risperidone]
- affinity to HTR7 [1]: high affinity

SMILES: CN(C)CCC[C@@]1(c2ccc(F)cc2)OCc2cc(C#N)ccc21 [Escitalopram]
- effect on norepinephrine transporter [2]: no direct effect
- OR, Rs7905446, remitter vs. non-remitter [3]: 1.669

SMILES: O=C1[C@H]2CCCC[C@H]2C(=O)N1CCCCN1CCN(c2nsc3ccccc23)CC1 [perospirone, Perospirone]
- affinity to HTR7 [1]: high affinity

SMILES: CCN1CCCC1CNC(=O)c1cc(S(=O)(=O)CC)c(N)cc1OC (stereo not drawn) [amisulpride, Amisulpride]
- affinity to HTR7 [1]: high affinity

SMILES: CNCCC=C1c2ccccc2CCc2ccccc21 [Nortriptyline, Nortyptiline]
- OR, Rs7905446, remitter vs. non-remitter [3]: 0.694

SMILES: O=C1[C@@H]2[C@H]3CC[C@H](C3)[C@@H]2C(=O)N1C[C@@H]1CCCC[C@H]1CN1CCN(c2nsc3ccccc23)CC1 [lurasidone, Lurasidone]
- affinity to HTR7 [1]: high affinity

SMILES: Fc1ccc([C@@H]2CCNC[C@H]2COc2ccc3c(c2)OCO3)cc1 [Paroxetine]
- OR, Rs7905446, responder vs. non-responder [4]: 5.250

SMILES: CN(C)CCC=C1c2ccccc2CCc2ccccc21 [amitriptyline, Amitriptyline]
- affinity to HTR7 [1]: high affinity

SMILES: Clc1ccc2c(c1)C(N1CCNCC1)=Nc1ccccc1O2 [amoxapine, Amoxapine]
- affinity to HTR7 [1]: high affinity

SMILES: CNCCC(Oc1ccc(C(F)(F)F)cc1)c1ccccc1 (stereo not drawn) [fluoxetine, Fluoxetine]
- HTR7 expression [5]: downregulates

SMILES: CC1CCN(CC[C@H]2CCCN2S(=O)(=O)c2cccc(O)c2)CC1 [SB-269970]
- effects of SSRI and NARI on blockade of HTR7 [6]: potentiate
